# Where “and” joins values, the source holds several entries; their conditions need not be identical. Equal values may be shown once.
# How the values were obtained:
# MCF-7 [1] = test: Sulforhodamine B antiproliferative assay, 72 h, normal and hypoxia; type: cell-based, human; conditions: 72-hour exposition; for IC50: Homo sapiens, MCF7
# Method: (§1) Anticancer activity of PDI A1-inhibitors has been also tested in vitro in antiproliferative essay in normoxic and hypoxic conditions as well in estrogen-stimulated cancer cells. In the experiment, cells were seeded on 96-well plates (Sarstedt, Germany) in appropriate culture medium at a density of 10^5 cells/mL 24 h before adding the tested compounds. Cells were treated with each compound in four concentrations in the range 0.1-100 ug/mL. […] After 72 h of compound treatment at 37° C., 5 % CO2 humid atmosphere and in wo different oxygen level conditions: 21% - normal and <1% - hypoxia. In some experiments, the MDA-MB-231 and MCF-7 cells were seeded with or without 200 nM estradiol and after 24 h the tested compounds were added. A previously described sulforhodamine B antiproliferative assay was used with minor modifications (Skehan P et al., 1990). Briefly, cells were fixed with 50 µL/well of 50% (w/v) trichloroacetic acid (Avantor Performance Materials, Gliwice, Poland). After 1 h incubation, plates were washed several times with tap water and 50 µL of 0.4% (w/v) solution of sulforhodamine B (Sigma-Aldrich, Germany) in 1% (v/v) acetic acid (Avantor Performance Materials, Gliwice, Poland) was added to each well. After 30 min incubation at room temperature, unbound dye was washed out with 1% (v/v) acetic acid, whereas bound dye was solubilized with 10 mM unbuffered TRIS (Avantor Performance Materials, Gliwice, Poland) solution. The entire procedure was performed using a BioTek EL-406 washing station (BioTek Instruments, USA). After additional 30 min, absorbance was read using a Biotek Hybrid H4 reader (BioTek Instruments, USA) at 540 nm wavelength. MTT assay was used alternatively for HL-60 cell line and in the experiment in which estrogens are added (specified in the table legend). Absorbance was measured using a Biotek Hybrid H4 reader at 570 nm wavelength for MTT assay.
# (§2) Compounds at each concentration were tested in triplicate in a single experiment and each experiment was repeated at least three times independently.
# (§3) Results of in vitro antiproliferative effects are shown in Table 3 and Table 4 and are presented as mean IC50 ± SD calculated using the Prolab-3 system based on Cheburator 0.4 software.
# MDA-MB-231 [2] = test: as above; type: cell-based, human; conditions: 72-hour exposition; for IC50: Homo sapiens, MDA-MB-231
# Method: as §1, §2, §3
# Caco-2 = test: Sulforhodamine B antiproliferative assay, 72 h; type: cell-based, human; conditions: normal (21% of oxygen), 72-hour exposition
# HT-29 [3] = test: Sulforhodamine B antiproliferative assay, 72 h; type: cell-based, human; conditions: normal (21% of oxygen), 72-hour exposition
# Method: as §1, §2, §3
# PDI A1 = target: T1, PDI A1 (Homo sapiens, UniProt P07237); test: Insulin turbidometric assay, inhibition of PDI A1; type: biochemical; conditions: insulin reduction, turbidity at 650 nm, 60 min incubation at 37° C.; read-out: Inhibition of PDI A1 (EC 50)
# T1 construct: purchased Mybiosource; host or cells: E. coli
# T1 sequence (P07237 18-508, species assumed): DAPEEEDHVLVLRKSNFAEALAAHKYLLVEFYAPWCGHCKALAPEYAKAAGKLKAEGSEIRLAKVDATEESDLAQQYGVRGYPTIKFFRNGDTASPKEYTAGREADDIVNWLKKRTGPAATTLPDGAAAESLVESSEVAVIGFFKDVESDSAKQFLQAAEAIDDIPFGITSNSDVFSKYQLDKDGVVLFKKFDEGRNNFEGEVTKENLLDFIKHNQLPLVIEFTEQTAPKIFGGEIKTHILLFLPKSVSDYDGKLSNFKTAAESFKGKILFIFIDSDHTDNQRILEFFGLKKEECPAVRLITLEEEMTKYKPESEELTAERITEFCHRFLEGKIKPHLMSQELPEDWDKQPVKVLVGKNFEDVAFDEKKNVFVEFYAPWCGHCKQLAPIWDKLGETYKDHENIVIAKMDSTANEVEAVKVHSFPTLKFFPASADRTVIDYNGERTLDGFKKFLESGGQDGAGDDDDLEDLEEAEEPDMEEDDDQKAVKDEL
# Method: The inhibitory effects compounds of invention on activity of PDI A1 was assess based on the insulin turbidometric assay. Enzymatic activity of PDIA1 was confirmed by measuring the turbidity increase at 650 nm due to insulin reduction. The assay mixture was prepared by addition 10 ug/ml PDIA1 (E.coli recombinant protein; Mybiosource), 0.1 mM phosphate buffer (pH7.6), 1 mM EDTA, 0.087 mM DTT and with or without tested compound and was incubated for 60 min, at 37° C. Reaction was started by addition insulin and DTT. Final concentration of insulin and DTT in assay mixture was 0.15 mM and 0.174 mM, respectively. Turbidity was detected at 650 nm against reference samples without PDI A1s. The measurements were performed at 650 nm using 120-s recordings.
# [4] = test system: Lewis Lung Carcinoma (LLC); test: Murine model of Lewis Lung Carcinoma; type: in vivo, mice
# Method: To confirm anticancer activity of selected compounds of invention, PDI A1-inhibitors in vivo, selected compounds of invention were tested in the murine model of Lewis Lung Carcinoma (LLC). The Lewis Lung Carcinoma (LLC) cell line was obtained from the ATCC collection and was cultured in a humidified atmosphere of 5% CO2 at 37° using Dulbecco’s modified Eagle’s medium (DMEM) that contained 10% bovine serum (Sigma). Female (6-8 weeks old) C57BL/6 mice (purchased from Envigo RMS. BV., Nederland) were acclimated for one week and were fed with animal chow and water ad libitum. The C57BL/6 mice were injected s.c. with 0.5 × 10^5 LLC cells per mice in 100 µL PBS. Compounds were dissolved in DMSO and then 0.9% NaCl (DMSO final concentration 1%) were added. In each treatment group, i.p. injections of 100 µl compound were started on 1 day after tumor inoculation. Control animals injected with equal volume of 0.9% NaCl with 1% DMSO administered in the same schedule as other groups. Tumor larger radius (a) and smaller radius (b) were measured by calipers. The tumor volume (Tv) was calculated according the following formulaTv = V=4 • ab2/3. The mice in control group were sacrificed 17 days after tumor establishment. Tumor tissues were dissected, weighed and frozen in OCT compound.
# [5] = test system: Caco-2 (human colon adenocarcinoma); test: MTT antiproliferative assay, 48 h; type: cell-based; conditions: Homo sapiens, Caco-2, 48-hour exposition, read-out: Cytotoxicity, IC50, µM CaCo-2
# Method: (§4) About 2000-4000 cells per well (depending on line nature) were placed in 96-well plates and after 24 h compounds were added to the wells. Untreated cells were used as a control. The plates were incubated for 48 h, 37° C., 5% CO2. The number of surviving cells was determined using 3-(4,5-dimethylthiazol-2-yl)-2,5-diphenyltetrazolinium bromide (MTT). MTT-test: after incubating culture medium was removed and 200 µL fresh medium with 20 µL MTT (2 mg/mL in HBSS) was added in each well of the plate. After incubation (3 hr., 37° C., 5% CO2), the medium with MTT was removed and 200 µL DMSO were added at once to each sample. The samples were tested at 540 nm on Thermo Scientific Multiskan EX microplate photometer. The half-maximal inhibitory concentration (IC50) of each compound was calculated using Graph Pad Prism® 3.0.
# [6] = test system: HT-1080 (human fibrosarcoma); test: MTT antiproliferative assay, 48 h; type: cell-based; conditions: 48-hour exposition, read-out: Cytotoxicity, IC50, µM HT-1080
# Method: as §4
# [7] = test system: MCF-7 (human breast adenocarcinoma, estrogen-positive); test: MTT antiproliferative assay, 48 h; type: cell-based; conditions: Homo sapiens, MCF7, 48-hour exposition, read-out: Cytotoxicity, IC50, µM MCF-7
# Method: as §4
# [8] = test system: MDA-MB-231 (human mammary breast adenocarcinoma); test: MTT antiproliferative assay, 48 h; type: cell-based; conditions: Homo sapiens, MDA-MB-231, 48-hour exposition, read-out: Cytotoxicity, IC50, µM MDA-MB-231
# Method: as §4
# MCF-7 [9] = test: MTT antiproliferative assay, 72 h, with or without estradiol; type: cell-based, human; conditions: for Selectivity index (SI): IC50 of MCF-10A/ IC50 of MCF-7 / IC50: 72 hours exposition; for IC50: Homo sapiens, MCF7, MTT
# Method: as §1, §2, §3
# (§5) Statistical analysis: Unpaired t test. *p<0.05 as compared to appropriate cells not pretreated with estradiol. MTT assay was used for antiproliferative activity assessment.
# MDA-MB-231 [10] = test: as above; type: cell-based, human; conditions: for IC50: Homo sapiens, MDA-MB-231, 72 hours exposition, MTT
# Method: as §1, §2, §3, §5
# HL-60 = test: MTT antiproliferative assay, 72 h; type: cell-based; conditions: Homo sapiens, 72 hours exposition, read-out: IC50 [µg/ml] HL-60 normal
# Method: as §1, §2, §3, §5
# HT-29 [11] = test: MTT antiproliferative assay, 72 h; type: cell-based; conditions: Homo sapiens, 72 hours exposition, read-out: IC50 [µg/ml] HT-29 normal
# Method: as §1, §2, §3, §5
# [12] = C57BL/6 mice, LLC s.c., 50 mg/kg i.p., 5 animals
# [13] = C57BL/6 mice, LLC s.c., 50 mg/kg i.p., single animals, 50 mg/kg
# [14] = 200 nM estradiol, read-out: IC50 [µg/ml] MCF-7 + estradiol
# [15] = not pretreated with estradiol, read-out: IC50 [µg/ml] MCF-7 normal
# [16] = 200 nM estradiol, read-out: IC50 [µg/ml] MDA-MB-231 + estradiol
# [17] = not pretreated with estradiol, read-out: IC50 [µg/ml] MDA-MB-231 normal
EC50 (PDI A1),IC50 (MCF-7 [9]; [14]),IC50 (MDA-MB-231 [10]; [16]),Compound,IC50 [µg/ml] MCF-7 hypoxia (MCF-7 [1]; hypoxia (<1% of oxygen)),IC50 [µg/ml] MCF-7 normal (MCF-7 [1]; normal (21% of oxygen)),IC50 [µg/ml] MDA-MB-231 hypoxia (MDA-MB-231 [2]; hypoxia (<1% of oxygen)),IC50 [µg/ml] MDA-MB-231 normal (MDA-MB-231 [2]; normal (21% of oxygen)),IC50 [µg/ml] Caco-2 normal (Caco-2),IC50 [µg/ml] HT-29 normal (HT-29 [3]),IC50 [5],IC50 [6],IC50 [7],IC50 [8],Selectivity index (SI): IC50 of MCF-10A/ IC50 of MCF-7 (MCF-7 [9]),IC50 (MCF-7 [9]; [15]),IC50 (MDA-MB-231 [10]; [17]),IC50 (HL-60),IC50 (HT-29 [11]),further results
,,,"COc1ccc(N2C(=O)/C(=C\c3ccc([N+](=O)[O-])s3)SC2=S)cc1 [CCF642, reference compound]",0.6 ± 0.6 µg/mL,0.7 ± 0.5 µg/mL,0.3 ± 0.2 µg/mL,0.3 ± 0.1 µg/mL,0.4 ± 0.1 µg/mL,0.4 ± 0.05 µg/mL,,,,,,,,,,
5 µM,,,"COC(=O)C1CN1S(=O)(=O)c1ccc(C)cc1 (stereo not shown) [Compound C-3161, Methyl 1-(p-tolylsulfonyl)aziridine-2-carboxylate]",,,,,,,,,,,,,,,,"IC50 (MCF-7 [1]; hypoxia (<1% of oxygen), read-out: IC50 [µg/ml] MCF-7 hypoxia): 3.6 ± 0.3 µg/mL; IC50 (MCF-7 [1]; normal (21% of oxygen), read-out: IC50 [µg/ml] MCF-7 normal): 3.6 ± 0.3 µg/mL; IC50 (MDA-MB-231 [2]; hypoxia (<1% of oxygen), read-out: IC50 [µg/ml] MDA-MB-231 hypoxia): 11.3 ± 10.6 µg/mL; IC50 (MDA-MB-231 [2]; normal (21% of oxygen), read-out: IC50 [µg/ml] MDA-MB-231 normal): 9.9 ± 8.2 µg/mL; IC50 (Caco-2; Homo sapiens, Caco-2): 3.5 ± 0.3 µg/mL; IC50 (HT-29 [3]; Homo sapiens, HT-29): 28.4 ± 5 µg/mL; Tumor volume average±stdev, day 10 [4, 12]: 105±144 mm3; Tumor volume average±stdev, day 12 [4, 12]: 172±240 mm3; Tumor volume average±stdev, day 14 [4, 12]: 345±377 mm3; Tumor volume average±stdev, day 16 [4, 12]: 380±446 mm3; Tumor volume average±stdev, day 17 [4, 12]: 368±393 mm3; Individual tumor volumes, day 10 [4, 13]: 258 mm3 and 0 mm3 (3×) and 266 mm3; Individual tumor volumes, day 12 [4, 13]: 496 mm3 and 0 mm3 (3×) and 365 mm3; Individual tumor volumes, day 14 [4, 13]: 829 mm3 and 254 mm3 and 0 mm3 (2×) and 642 mm3; Individual tumor volumes, day 16 [4, 13]: 980 mm3 and 199 mm3 and 0 mm3 (2×) and 719 mm3; Individual tumor volumes, day 17 [4, 13]: 946 mm3 and 476 mm3 and 0 mm3 (2×) and 419 mm3; Anti-cancer activity in vivo ([4]; LLC model, Tables 6 and 7): possess anti-cancer activity in vivo"
,10.4 ± 2.4 µg/mL,17.7 ± 2.1 µg/mL,"COC(=O)C1CN1S(=O)(=O)c1cccc2c(N(C)C)cccc12 (stereo not shown) [Compound C-3326, Methyl 1-[[5-(dimethylamino)-1-naphthyl]sulfonyl]aziridine-2-carboaylate]",,,,,,,170 ± 20 µM,100 ± 5 µM,349 ± 13 µM,169 ± 20 µM,4.84,5.4 ± 1.7 µg/mL,15.7 ± 3.1 µg/mL,1.9 ± 0.6 µg/mL,39.2 ± 6.5 µg/mL,Change in sensitivity of MCF-7 after addition of estradiol (MCF-7 [9]; with estradiol versus without): slight decrease in sensitivity
0.03 µM,18.4 ± 4.3 µg/mL,28 ± 1.7 µg/mL,"CCCCCCc1ccc(S(=O)(=O)N2CC2C(N)=O)cc1 (stereo not shown) [Compound C-3389, 1-(4-Hexylphenyl)sulfonylaziridine-2-carboxamide]",,,,,,,49 ± 2 µM,36 ± 3 µM,47 ± 6 µM,32 ± 3 µM,0.23,26.7 ± 4.5 µg/mL,23.2 ± 1 µg/mL,2.8 ± 0.8 µg/mL,31.2 ± 6.7 µg/mL,Change of antiproliferative activity towards MDA-MB-231 during simultaneous incubation with estradiol (MDA-MB-231 [10]; with estradiol versus without): slight decrease of antiproliferative activity
,,,"O=C(C1CC1)N1CCN(Cn2sc3ccccc3c2=O)CC1 [LOC14, reference compound]",3.9 ± 0.3 µg/mL,4.4 ± 0.9 µg/mL,2.6 ± 0.5 µg/mL,2.8 ± 0.4 µg/mL,9.1 ± 3.4 µg/mL,12.6 ± 8.4 µg/mL,,,,,,,,,,

# Reference: patent US20230039836A1, “AROMATIC SULPHONAMIDES DERIVATIVES THAT INHIBITS PDI A3, THEIR SYNTHESIS AND USE” (Uniwersytet Jagiellonski, priority 2020, published 2023)
